Article PMC12040169 (PLOS Biology, 2025)

Assay: in vitro
Settings: human, hela cells, % viability

Row | Structure (SMILES) | viability at 28.5 h, 10 µM [%] | viability at 28.5 h, 10 µM (bulk resorufin, single well) [%]
1 | NC(=O)c1ccc(-c2cc(Nc3ccc(CCO)cc3)ncn2)cc1 [CBK090773] | 102 | –
2 | O=C(Cc1ccc(Cl)c(Cl)c1)N1CCC2(CCN(C(=O)c3cc(F)c(F)cc3F)C2)C1 (centres unmarked) [CBK131386] | 95.9 | –
3 | CC1CCn2c3c(c4cccc1c42)CCNCC3 (centres unmarked) [CBK018012C] | 97.4 | –
4 | CC(=O)Nc1ccc(S(=O)(=O)/N=C(/Nc2nc(C)cc(C)n2)Nc2ccccc2C)cc1 [CBK264101] | 95.9 | –
5 | COCC(=O)N[C@H]1CCN2C(=O)c3cc(-c4cccc(C)c4C)ccc3NC(=O)[C@@H]2C1 [CBK289562] | 90.7 | –
6 | CCOc1ccc(NCc2ccccc2NS(=O)(=O)c2ccc(C)cc2)cc1 [CBK056876] | 93.6 | –
7 | COc1ccc(CN2CCN(C(=O)NS(=O)(=O)c3ccc(C)cc3)CC2)cc1F [CBK297156] | 98.5 | –
8 | CN1CCC(N2CCN(C(=O)NC3CCc4ccccc43)CC2)CC1 (centres unmarked) [CBK156110] | 106 | –
9 | O=C(CN1C(=O)N2CCCN=C2c2ccccc21)NCc1ccccc1 [CBK284403] | 84.8 | –
10 | COC(=O)CN1N=C(C(C)(C)C)Cn2c(cc3ccccc32)C1=O [CBK284204] | 95.5 | –
11 | O=C(O)CC(Cc1ccc(Cl)cc1)C(=O)NCc1ccccc1 (centres unmarked) [CBK286984] | 89.4 | –
12 | N#Cc1cccnc1N1CC(C(=O)O)C2(CCC2)C1 (centres unmarked) [CBK304415] | 93.7 | –
13 | CCc1nn(CC(=O)N(CC)CC)c(=O)c2cc3occc3n12 [CBK283656] | 91 | –
14 | CS(=O)(=O)c1ccc(-c2cnc3[nH]c(=O)n(Cc4cccs4)c3n2)cc1 [CBK064383] | 93.1 | –
15 | CC1(C)CC(=O)C2=C(C1)Nc1nn(-c3ccccc3)c(O)c1C2c1cccs1 (centres unmarked) [CBK266333] | 94 | –
16 | O=c1c2c(nc(NCCO)n1-c1ccccc1)-c1ccccc1CC21CCCCC1 [CBK262589] | 96.4 | –
17 | O=C(c1c(NS(=O)(=O)c2cccc3cccnc23)sc2c1CCCC2)N1CCOCC1 [CBK028655] | 84.2 | –
18 | COc1cc(CNc2cncc(-c3cccs3)n2)cc(OC)c1OC [CBK065526] | 106 | –
19 | Cn1ncc(Cl)c1C1CCCCCN1C(=O)c1cc(C2CC2)on1 (centres unmarked) [CBK284973] | 102 | –
20 | CC1(C)CC(=O)c2sc(NC(=O)c3cccc(C(F)(F)F)c3)nc2C1 [CBK019941] | 94.2 | –
21 | N#Cc1ccsc1NC(=O)CSc1nnc[nH]1 [CBK267221] | 87.7 | –
22 | CCCCNS(=O)(=O)c1ccc(Cl)c(Cl)c1 [CBK044309] | 96.5 | –

Row | Structure (SMILES) | viability at 28.5 h, 10 µM [%] | viability at 28.5 h, 10 µM (bulk resorufin, single well) [%]
23 | CC(C)c1ccc(/C=C2\CCCc3c2nc2ccccc2c3C(=O)O)cc1 [CBK299777] | 91.2 | –
24 | CC(=O)Nc1cccc(-c2cncc(-c3ccc(O)cc3)n2)c1 [CBK123795] | 77.8 | –
25 | O=C1Nc2ccc(Br)cc2C(=O)N2CCNC[C@H]12 [CBK289583] | 85.1 | –
26 | COc1ccc(-c2cc(=O)[nH]c(N3CCN(C)CC3)n2)cc1 [CBK003849] | 90.4 | –
27 | CC1CC1C(=O)N1CCCC(c2cc3cccnc3[nH]2)C1 (centres unmarked) [CBK282156] | 80.3 | –
28 | O=c1ccc2ccc(-c3ccc(OC(F)(F)F)cc3)nc2[nH]1 [CBK073720] | 98.8 | –
29 | C=CCn1c2ccccc2c2nnc(SCC(=O)N3c4ccccc4Sc4ccccc43)nc21 [CBK263237] | 106 | –
30 | Cn1c(SCc2ccccc2)nc2ccsc2c1=O [CBK288039] | 82.1 | –
31 | CS(=O)(=O)c1cccc(C(=O)Nc2cnc(-c3ccc(F)c(Cl)c3)c(-c3cccnc3)n2)c1 [CBK036779] | 101 | –
32 | COc1ccc(C)cc1S(=O)(=O)N(CC(=O)N1CCN(C)CC1)c1cccc(C(F)(F)F)c1 [CBK269355] | 96.2 | –
33 | COc1ccccc1NC(=O)C1CN(S(=O)(=O)c2ccccc2)CCN1S(=O)(=O)c1ccccc1 (centres unmarked) [CBK262673] | 93.5 | –
34 | COc1ccc(-c2ccccc2NS(=O)(=O)c2ccc3c(c2)CCC(=O)N3)cc1 [CBK286370] | 96.8 | –
35 | CC(C)N(C)C1CCN(S(=O)(=O)c2cccc([N+](=O)[O-])c2)CC1 [CBK294462] | 88.7 | –
36 | CN(C)CCN(C)c1nc(-c2ccc3c(c2)OCO3)cn2ccnc12 [CBK066381] | 110 | –
37 | O=C(O)c1csc(-c2ccc(Cl)cc2Cl)n1 [CBK067777] | 90 | –
38 | CCC(Oc1nc2ccccc2nc1-c1ccccc1NC(C)=O)C(=O)c1ccccc1 (centres unmarked) [CBK267315] | 94.4 | –
39 | O=C(O)c1cccc(NS(=O)(=O)c2ccc(F)c(C(F)(F)F)c2)c1 [CBK155693] | 97.2 | –
40 | O=C(O)c1cccc(NS(=O)(=O)c2ccc(-c3cnco3)cc2)c1 [CBK155726] | 97.4 | –
41 | O=C(O)CN(c1ccc(F)cc1)S(=O)(=O)c1ccc2c(c1)OCCO2 [CBK287096] | 84.1 | –
42 | Cc1ccc(S(=O)(=O)N2CCN(C(=O)CSc3nnc4sc5ccccc5n34)CC2)cc1 [CBK265961] | 90.5 | –
43 | CCOc1ccc(N2C(=O)NC(=O)/C(=C\NC(C)(CO)CO)C2=O)cc1 [CBK261437] | – | 99.5
44 | O=C(CCc1ccc(F)cc1)N1CCC(c2cccc(Cc3ccccc3)n2)CC1 [CBK286511] | 114 | –
